{
  "source": "paper PMC11946679",
  "about": "(Toxics, 2025)",
  "system": "human peripheral blood lymphocytes",
  "assay_type": "cell-based",
  "settings": "3 h",
  "description": "While screening microscope preparations to determine trends in the levels of the main CBMN assay descriptors, nonviable cells were also simultaneously counted on the same slides. Their discrimination was based on the specific morphological features typical for apoptosis or necrosis. It is well known that the biological significance of these phenomena differs deeply, and that the determination of the predominant type of cell death represents a very important issue in each experimental setting.\nFor each experimental group, we also calculated the ratio between the recorded number of nonviable cells and the cells in apoptosis (Table 5). According to reference, a ratio ≤ 1 means a prevalence of apoptotic events that induce cell death, while a ratio > 1 indicates the acute toxicity of the tested substance that promotes necrosis.",
  "key": {"[1]": {"settings": "scored along with 4000 binucleated cells, 1× + IRI 9.0 mg/L, propolis 1.36 mg/L, galangin 0.02 mg/L"}, "[2]": {"settings": "scored along with 4000 binucleated cells, 5× + IRI 9.0 mg/L, propolis 6.8 mg/L, galangin […]"}, "[3]": {"settings": "scored along with 4000 binucleated cells, 10× + IRI 9.0 mg/L, propolis 13.6 mg/L, galangin 0.22 mg/L"}},
  "note": "Where two headings read alike, the source gives them in different places.",
  "data": [
    {"smiles": "O=c1c(O)c(-c2ccccc2)oc2cc(O)cc(O)c12", "note": "[Galangin]", "values": [
      {"measurement": "Ratio (nonviable cells and cells in apoptosis)", "setting": "1× + IRI 9.0 mg/L, propolis 1.36 mg/L, galangin 0.02 mg/L", "value": 0.5},
      {"measurement": "Ratio (nonviable cells and cells in apoptosis)", "setting": "5× + IRI 9.0 mg/L, propolis 6.8 mg/L, galangin […]", "value": 0.5},
      {"measurement": "Ratio (nonviable cells and cells in apoptosis)", "setting": "10× + IRI 9.0 mg/L, propolis 13.6 mg/L, galangin 0.22 mg/L", "value": 0.6},
      {"measurement": "Ratio (nonviable cells and cells in apoptosis)", "setting": "male, human, 0.02 mg/L", "value": 0.5},
      {"measurement": "Total No. of Cells in Apoptosis", "setting": "male, human, 0.02 mg/L", "value": 7},
      {"measurement": "Total No. of Nonviable Cells", "setting": "male, human, 0.02 mg/L", "value": 14},
      {"measurement": "Ratio (nonviable cells and cells in apoptosis)", "setting": "male, human, 0.22 mg/L", "value": 0.7},
      {"measurement": "Total No. of Cells in Apoptosis", "setting": "male, human, 0.22 mg/L", "value": 8},
      {"measurement": "Total No. of Nonviable Cells", "setting": "male, human, 0.22 mg/L", "value": 12},
      {"measurement": "Total No. of Cells in Apoptosis", "setting": "[1]", "value": 28},
      {"measurement": "Total No. of Nonviable Cells", "setting": "[1]", "value": 52},
      {"measurement": "Total No. of Cells in Apoptosis", "setting": "[2]", "value": 23},
      {"measurement": "Total No. of Nonviable Cells", "setting": "[2]", "value": 42},
      {"measurement": "Total No. of Cells in Apoptosis", "setting": "[3]", "value": 19},
      {"measurement": "Total No. of Nonviable Cells", "setting": "[3]", "value": 34}
    ]}
  ]
}
